# Data reported in patent US20030152515A1, “Method for estimating effective regimens and patient survival rates of antibiotic treatments for fatal infectious diseases” (priority 2002, published 2003).
# “Also recorded” adds a separate entry of the source.
# Key:
# [1] = test system: Bacillus anthracis; conditions: rhesus monkey, in vivo; cited from earlier work
# [2] = test system: anthrax; experiment: microbe, parasite or virus in culture; format: cell-based; conditions: Bacillus anthracis, read-out: MIC against anthrax, mid point adopted in the analyses
# [3] = test system: inhalational anthrax; conditions: human, in vivo; cited from earlier work
# [4] = test system: gram positive and negative organisms; conditions: cited from earlier work
structure (smiles),measurement,setting,value
O=C(O)c1cn(C2CC2)c2cc(N3CCNCC3)c(F)cc2c1=O [ciprofloxacin],protection from the disease while on therapy,[1],sufficient protection; also recorded: adequately protected
same,survival rate,[1],90%
same,MIC,[2],0.07 µg/mL
same,overall survival,[3],55%
same,MIC range of organisms in the literature study,[4],0.008−0.4 μg/mL
